We go through one compound from patent US10172835B2, “Anticancer agent composition” (J-Pharma Co., Ltd., priority 2014, dated 2019).

The test system of one data set is normal murine thymocytes. Briefly: WST-1 cell viability of normal thymocytes. Format: cell-based. As to the method:
(§1) Two different assays were employed: i) In a 96-well plate format, cells (4.0±0.1×10^4 per well; 100 μL) were incubated with effectors (48 h, 37° C.; n=4 per experiment) and then WST-1 reagent (10 μL; Roche Diagnostics) added to each well of 96-well plates, incubated, and the formazan production was measured at 490 nm; and ii) cells (2.0±0.1×10^4 per well; 100 μL) were incubated with effectors (48 h, 37° C.; n=4 per experiment) and then bromodeoxyuridine reagent (10 μL/well; Roche Diagnostics) was added to each well and incubated (8 h, 37° C.). The cells were then fixed, denatured and incubated with anti-BrdU-conjugated with peroxidase (POD) antibody (100 μL/well). Colorimetric substrate (TMB: tetramethyl-benzidine; 100 μL/well) was added and BrdU incorporation quantified via optical density measurement (450 nm) which corresponds to DNA synthesis and proliferating cells.

For data set [1], the system named is freshly isolated tPTEN−/− tumor cells. Briefly: WST-1 cell viability of freshly isolated primary tPTEN−/− tumor cells. Format: cell-based, murine. The conditions noted are these: concentration dependent manner. The method, then: as §1
Background: Tetrazolium assays rely on reduction of a dye to a coloured formazan, in cell work by metabolically active cells.

Another data set relates to CHOP / mTOR. Briefly: Western blot of CHOP induction and S6RP phosphorylation in KO99-RJ cells. Format: cell-based, murine. As to the method: Cell extracts were prepared using a cell lysis buffer (50 mM HEPES, pH 7.4, 150 mM NaCl, 20 mM EDTA, 100 mM NaF, 10 mM Na3VO4, 0.5% nonyl phenoxypolyethoxylethanol (NP40) supplemented with a cocktail of protease inhibitors. After SDS-PAGE separation and transfer to nitrocellulose immunoblotting was performed using the following antibodies against: Akt (Cell Signaling Technologies, #9272), CHOP (#2895), cleaved caspase 3 (#9664), c-Myc (#9402), eIF2a (#9721), 4EBP1 (#9644), LC3A/B (#12741), PARP (#9542), pJnk (T183/Y185) (#9251), pSer235-236-S6RP (#4856), pSer473-Akt (#9271), pSer65-4EBP1 (#9451) and S6RP (#2217); Bax (Sigma-Aldrich, B8429); PUMA (Abcam, ab54288); Bak (Millipore, 06536); ATF4 (Santa Cruz Biotechnologies, sc200), GADD34 (sc8327), Hsp60 (sc-1722), Hsp90 (sc-13119) and XBP1 (sc-7160); ATF6 (Imgenex, IMG-273).

Data set [2] deals with KO99L cells (tPTEN−/− tumor cell line). Briefly: WST-1 cell viability assay on KO99L cells. Type of data set: cell-based, murine. The method, then: as §1
Data set [3] relates to HT-29 cell derived from human large intestine cancer. Briefly: Tumor growth in nude mouse SOI model (HT-29 grafted onto wall of large intestine). Type of data set: in vivo. From the text:
[…] was expressed in a HT-29 cell derived from human large intestine cancer, and which was grafted onto the wall of large intestine of a mouse to produce a metamouse. According to this, the quantity of the size of the tumor could be determined with time with emission intensity. In FIG. 16, the size of tumor in each treatment group was shown with a bar graph. Group 1 is a control group, Groups 2 to 4 are a group in which COM-JP was intraperitoneally administered alone at 3.1, 12.5, and 50 mg/kg weight/day every day for 4 weeks, Group 5 is a group in which CDDP was intraperitoneally administered alone at 2.5 mg/kg/day three times on day 0, day 6, and day 13, Groups 6 to 8 are a group in which Groups 2 to 4 and Group 5 were combined to be administered in combination, and Group 9 is a group in which COM-JP was orally administered at 300 mg/kg/day every day for 4 weeks.

The next data set has as its system KO99-RJ cells. Briefly: Cell death (PI staining) of KO99-RJ cells. Format: cell-based, murine. To be noted: 48 h.

Turning to `Nc1cc(COc2c(Cl)cc(C[C@H](N)C(=O)O)cc2Cl)c2oc(-c3ccccc3)nc2c1` [COMPOUND-JP, O-(5-amino-2-phenylbenzoxazole-7-yl)methyl-3,5-dichloro-L-tyrosine], the “toxicity in normal murine thymocytes” value with normal murine thymocytes was “non-toxic”. Moreover, the “cell viability in freshly isolated tPTEN−/− tumor cells” value in data set [1] is listed as “influenced cell viability”. In the data set with CHOP / mTOR, the “integrated stress response (CHOP induction)” value is “failed to trigger the integrated stress response” and the “mTOR inhibition (S6RP phosphorylation)” value is recorded as “failed to inhibit mTOR”. Further, in data set [2] (KO99L cells, 2.5-10.0 μM, 48 h), the cell viability entry is reported as “dose-dependent decrease”. Further, the “reversal of the viability decrease by Essential Amino Acids (EAA) in the medium” value in data set [2] (KO99L cells, 2.5-10.0 μM, NEAA no rescue) is listed as “partially reversed”. Further, the cytotoxicity at 40 µM in data set [2] (Mus musculus, KO99-S (parental KO99L), 40 μM, 48 h, read-out: decrease in cell viability) fell in the range of 95 to 100%. Further, the IC50 in data set [2] (Mus musculus, KO99L tPTEN−/− cells, 48 h, read-out: IC50, cell viability (drug concentration to kill half of the cells)) is 2400 nM. For the same compound, the “efficacy on tumor growth, single administration” value in data set [3] (COM-JP i.p. 3.1, 12.5, 50 mg/kg/day 4 weeks, CDDP i.p. 2.5 mg/kg/day day 0, 6, 13) is “not recognized”. Moreover, the “increase of the tumor” value in data set [3] (Group 9: orally 300 mg/kg/day every day for 4 weeks, vs untreated control) is “more significantly decreased”. In addition, the cell death entry with KO99-RJ cells is “far less efficient”.
